Laboratory results published in patent US5494907A, “11-β substituted-19-nor steroids” (Roussel UCLAF, priority 1993, dated 1996).

Columns and labels:
[1] = molecular target: T1, hER (recombinant human estrogen receptor) (Homo sapiens, UniProt P03372); assay: Relative bond affinity (RBA) on recombinant human estrogen receptor, displacement of tritiated estradiol; assay type: binding; details: for RBA hER: Estradiol = 100, 0° C., 24 hours; for affinity for the estrogen receptor (in words): conclusion in words
T1 construct: made in house; host or cells: SF9 insect cells, recombinant baculovirus
T1 sequence (P03372 1-595): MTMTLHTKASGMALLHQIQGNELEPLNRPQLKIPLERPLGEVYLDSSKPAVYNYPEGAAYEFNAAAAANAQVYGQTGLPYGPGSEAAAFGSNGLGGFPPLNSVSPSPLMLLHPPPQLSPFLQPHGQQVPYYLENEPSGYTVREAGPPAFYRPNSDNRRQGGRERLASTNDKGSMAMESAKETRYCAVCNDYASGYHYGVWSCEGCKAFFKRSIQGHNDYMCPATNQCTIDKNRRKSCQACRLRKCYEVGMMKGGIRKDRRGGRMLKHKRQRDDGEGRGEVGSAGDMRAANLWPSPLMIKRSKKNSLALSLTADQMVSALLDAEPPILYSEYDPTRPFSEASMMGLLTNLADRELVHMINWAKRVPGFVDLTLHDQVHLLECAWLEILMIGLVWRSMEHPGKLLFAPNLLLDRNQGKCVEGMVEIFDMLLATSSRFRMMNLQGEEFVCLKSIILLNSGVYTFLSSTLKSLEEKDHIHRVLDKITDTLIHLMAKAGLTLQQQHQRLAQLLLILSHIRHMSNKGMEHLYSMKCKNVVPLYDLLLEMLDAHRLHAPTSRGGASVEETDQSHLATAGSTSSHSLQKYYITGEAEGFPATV
Source text: (§1) 1--Activity on the hormonal receptors using either the natural hormonal receptor of a rat (AR), or the recombinant human receptor (PR, GR and ER).
A supernatant of SF9 cells containing the recombinant human estrogen receptor was obtained by the process described above for the progesterone receptor using the cDNA fragment described in the HEGO expression vector by TORA et al. (EMBO Journal (1989), Vol. 8 N° 7, pp. 1981-1986), containing the region coding for the human estrogen receptor of "wild type" with a glycine in position 400. The cells were lysed in the lysis buffer (1). The supernatant was incubated at 0° C. for 24 hours with a constant concentration (T) of tritiated estradiol in the presence of increasing concentrations either of unlabelled estradiol (0-1000×10^-9 M), or of the unlabelled product under test (1 to 25000×10^-9 M). The concentration of bound tritiated estradiol (B) was then measured in each incubate by the technique of adsorption with carbon dextran.
(§2) Calculation of the relative bond affinity (RBA).
(§3) The following 2 curves were traced: percentage of bound tritiated hormone B/BO as a function of the logarithm of the concentration of unlabelled reference hormone or as a function of the logarithm of the concentration of the unlabelled product under test.
(§4) The straight line of the following equation was determined:
(§5) BO=Concentration of bound tritiated hormone in the absence of any unlabelled product,
(§6) B=Concentration of bound tritiated hormone in the presence of a concentration X of unlabelled product,
(§7) B min=Concentration of bound tritiated hormone in the presence of a large excess of cold reference hormone (500 nM). The intersections of the straight line I50 and the curves allowed the evaluation of the concentrations of unlabelled reference hormone (CH) and of the unlabelled product under test (CX) which inhibited by 50% the specific binding of the tritiated hormone on the receptor.
(§8) The relative bond affinity (RBA) of the product under test was determined by the equation:
(§9) The RBA's of the reference products estradiol, progesterone, dexamethasone and testosterone were arbitrarily taken to be equal to 100.

[2] = molecular target: T2, hGR (recombinant human glucocorticoid receptor) (Homo sapiens, UniProt P04150); assay: Relative bond affinity (RBA) on recombinant human glucocorticoid receptor, displacement of tritiated 6,21-dimethyl-Δ1,4,6-pregnatrien-11β,17β-diol-20-yn-3-one; assay type: binding; details: for RBA hGR: Dexamethasone = 100, 0° C., 24 hours; for affinity for the glucocorticoid receptor (in words): conclusion in words
T2 construct: made in house; host or cells: SF9 insect cells, recombinant baculovirus
T2 sequence (P04150 1-777): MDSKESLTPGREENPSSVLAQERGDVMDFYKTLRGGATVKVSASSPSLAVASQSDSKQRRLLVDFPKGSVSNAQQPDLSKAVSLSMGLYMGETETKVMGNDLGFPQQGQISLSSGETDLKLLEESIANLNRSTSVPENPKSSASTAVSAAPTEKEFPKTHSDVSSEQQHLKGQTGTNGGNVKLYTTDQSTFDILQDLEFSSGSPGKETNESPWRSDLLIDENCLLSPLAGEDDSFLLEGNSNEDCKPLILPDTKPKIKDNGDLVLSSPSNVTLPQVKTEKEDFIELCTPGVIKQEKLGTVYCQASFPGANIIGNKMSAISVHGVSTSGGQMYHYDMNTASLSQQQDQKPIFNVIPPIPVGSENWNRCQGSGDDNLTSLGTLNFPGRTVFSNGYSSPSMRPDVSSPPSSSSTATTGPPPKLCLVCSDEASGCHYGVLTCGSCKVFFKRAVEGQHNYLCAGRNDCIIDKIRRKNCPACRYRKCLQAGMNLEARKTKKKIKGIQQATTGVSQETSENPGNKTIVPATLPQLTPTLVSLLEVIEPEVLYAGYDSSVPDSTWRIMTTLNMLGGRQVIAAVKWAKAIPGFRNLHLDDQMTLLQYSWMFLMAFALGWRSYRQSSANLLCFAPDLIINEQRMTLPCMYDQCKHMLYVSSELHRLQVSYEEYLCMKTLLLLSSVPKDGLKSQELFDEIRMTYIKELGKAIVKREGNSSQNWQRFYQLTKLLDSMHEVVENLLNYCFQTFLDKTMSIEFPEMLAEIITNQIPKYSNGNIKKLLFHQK
Source text: as §1
Human glucocorticoid receptor
A supernatant of SF9 cells containing the recombinant human glucocorticoid receptor was obtained by the process described above for the progesterone receptor using the cDNA fragment described HOLLENBERG et al. (Nature (1985), Vol. 318 No. 19/26, p. 635) containing the region coding for the human glucocorticoid receptor. The cells were lysed in a lysis buffer (2). The supernatant was incubated at 0° C. for 24 hours with a constant concentration (T) of 6,21-dimethyl-Δ1,4,6-pregnatrien-11β,17β-diol-20-yn-3-one tritiated in the presence of increasing concentrations either of unlabelled dexamethasone (0-1000×10^-9 M), or of the unlabelled product under test (1 to 25000×10^-9 M). The concentration of bound tritiated 6,21-dimethyl-Δ1,4,6-pregnatrien-11β,17β-diol-20-yn-3-one (B) was then measured in each incubate by the technique of adsorption with carbon dextran.
as §2, §3, §4, §5, §6, §7, §8, §9

Compound	RBA hER [1]	affinity for the estrogen receptor (in words) [1]	RBA hGR [2]	affinity for the glucocorticoid receptor (in words) [2]
CN(CC(F)(F)C(F)(F)C(F)(F)F)S(=O)(=O)CCCCCOc1ccc([C@H]2C[C@]3(C)[C@@H](O)CC[C@H]3[C@@H]3CCc4cc(O)ccc4[C@H]32)cc1 [Example 8, 5-[4-(Δ1,3,5(10)-estratrien-3,17β-diol-11βyl)-Phenoxy]-N-(2,2,3,3,4,4,4-heptafluorobutyl)-N-methyl-pentanesulfonamide]	19	marked affinity	114	marked affinity
CCCCN(C)S(=O)(=O)CCCCCOc1ccc([C@H]2C[C@]3(C)[C@@H](O)CC[C@H]3[C@@H]3CCc4cc(O)ccc4[C@H]32)cc1 [Example 7, N-butyl-5-[4-(Δ1,3,5(10)-estratrien-3,17β-diol-11β-yl)phenoxy]-N-methyl-pentanesulfonamide]	4		152	marked affinity
CCCCNS(=O)(=O)CCCCCOc1ccc([C@H]2C[C@]3(C)[C@@H](O)CC[C@H]3[C@@H]3CCc4cc(O)ccc4[C@H]32)cc1 [Example 2, N-butyl-5-[4-(Δ1,3,5(10)-estratrien-3,17β-diol-11β-yl)phenoxy]-pentanesulfonamide]	21	marked affinity	82	marked affinity
